According to publication PMC8325119, “A Novel Class of Functionalized Synthetic Fluoroquinolones with Dual Antiproliferative - Antimicrobial Capacities” (Asian Pacific Journal of Cancer Prevention : APJCP, 2021):
In brackets after ≈: the same amount, converted by molar mass. Several values for one entry are separate records, joined by “and”; a condition that tells them apart may be missing. Equal entries are not always repeated. Where two headings read alike, the source gives them in different places.

Columns and labels:
T47D cell line = assay: cells; conditions: Homo sapiens, T47D, 72 h, read-out: Cytotoxicity IC50 value, T47D cell line
Procedure, shortened: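 Cells were cultured in DMEM supplemented with FBS, HEPES buffer, L-glutamine and antibiotics, then exposed to compounds. Viability loss was read by SRB staining to give IC50.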

HELA cell line = assay: SRB cytotoxicity assay, HELA cervical cancer cell line; conditions: Homo sapiens, HeLa, 72 h
K562 cell line = assay: SRB cytotoxicity assay, K562 leukaemia cell line; conditions: Homo sapiens, K562, 72 h
A375.S2 cell line = assay: SRB cytotoxicity assay, A375.S2 melanoma cell line; conditions: Homo sapiens, A375-S2, 72 h, read-out: Cytotoxicity IC50 value, A375.S2 cell line
A549 cell line = assay: SRB cytotoxicity assay, A549 lung cancer cell line; conditions: Homo sapiens, A549, 72 h, read-out: Cytotoxicity IC50 value, A549 cell line
MCF7 cell line = assay: SRB cytotoxicity assay, MCF7 breast cancer cell line; conditions: Homo sapiens, MCF7, 72 h, read-out: Cytotoxicity IC50 value, MCF7 cell line
PANC 1 cell line = assay: SRB cytotoxicity assay, PANC 1 pancreatic cancer cell line; conditions: Homo sapiens, PANC-1, 72 h, read-out: Cytotoxicity IC50 value, PANC 1 cell line
[1] = system: Staphylococcus aureus (S. aureus) ATCC 6538; assay: Quantitative antimicrobial assessment (MIC) against S. aureus; format: cell-based; conditions: for Antibacterial activity (in words): esters vs free acid, Gram positive strain context; for MIC: Staphylococcus aureus, ATCC6538, Gram positive, ATCC 6538; for MIC potency compared with ciprofloxacin, S. aureus: in words
PDL Fibroblasts = assay: SRB cytotoxicity on normal periodontal ligament fibroblasts, selective cytotoxicity; format: cell-based, Human; conditions: for IC50: Homo sapiens, Fibroblast, normal fibroblasts, SRB, 72 h, mean ± SD; for Selectivity index SI (A375.S2): IC50 on PDL fibroblasts divided by IC50 on A375.S2; for Selectivity index SI (K562): IC50 on PDL fibroblasts divided by IC50 on K562
Procedure, shortened: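 Human periodontal ligament fibroblasts, a primary normal culture, tested by SRB colorimetric assay for cell viability. Selectivity ratio = IC50 on normal fibroblasts divided by IC50 on the pathological cell line.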

[2] = system: Candida albicans (C. albicans) ATCC 1023; assay: Quantitative antimycotic assessment (MIC) against C. albicans; format: cell-based; conditions: in words
HCT116 = system: HCT116; design: method as in earlier work; conditions: colon cancer cells, Figure 1; ref Arabiyat et al. 2016a,b; 2017; Alabsi et al. 2018; Jumah 2018; AlShahrabi et al., 2020; read-out: IC50 against HCT116; cited from earlier work
SW620 = system: SW620; design: method as in earlier work; conditions: colon cancer cells, Figure 1; ref Arabiyat et al. 2016a,b; 2017; Alabsi et al. 2018; Jumah 2018; AlShahrabi et al., 2020; read-out: IC50 against SW620; cited from earlier work
[3] = read-out: Cytotoxicity IC50 value, HELA cell line, SRB, 72 h, 0.1-200 μg/mL range, mean ± SD, value in brackets
[4] = read-out: Cytotoxicity IC50 value, HELA cell line, SRB, 72 h, 0.1-200 μg/mL range, mean ± SD, NI = lack of cytotoxicity in range
[5] = read-out: Cytotoxicity IC50 value, K562 cell line, SRB, 72 h, 0.1-200 μg/mL range, mean ± SD, NI = lack of cytotoxicity in range
[6] = read-out: Cytotoxicity IC50 value, K562 cell line, SRB, 72 h, 0.1-200 μg/mL range, mean ± SD, value in brackets
[7] = 0.1-200 μg/mL range, NI = lack of cytotoxicity in range

| SMILES | IC50 (T47D cell line) | IC50 (HELA cell line; [3]) [µg/mL] | IC50 (HELA cell line; [4]) [µM] | IC50 (K562 cell line; [5]) | IC50 (A375.S2 cell line) | IC50 (A549 cell line) | IC50 (MCF7 cell line) | IC50 (PANC 1 cell line) | Antibacterial activity (in words) [1] | IC50 (K562 cell line; [6]) [µg/mL] | IC50 (PDL Fibroblasts; [7]) | IC50 (PDL Fibroblasts; value in brackets) [µg/mL] | Selectivity index SI (A375.S2) (PDL Fibroblasts) | Selectivity index SI (K562) (PDL Fibroblasts) | MIC [1] [µM] | Antimycotic MIC potency compared with fluconazole, C. albicans [2] | MIC potency compared with ciprofloxacin, S. aureus [1] | Selectivity index SI (MCF7) (PDL Fibroblasts; IC50 on PDL fibroblasts divided by IC50 on MCF7) | IC50 (HCT116) [µM] | IC50 (SW620) [µM] |
| --- | --- | --- | --- | --- | --- | --- | --- | --- | --- | --- | --- | --- | --- | --- | --- | --- | --- | --- | --- | --- |
| O=C(O)c1cn(C2CC2)c2c([N+](=O)[O-])c(Cl)c(F)cc2c1=O [1A] | > 200 µg/mL | 7.02 | 19.8 ± 1.48 | > 200 µg/mL | 10 µM and 3.52 µg/mL | 57.9 µM and 20.4 µg/mL | 3.32 µM and 1.17 µg/mL | 59.1 µM and 21 µg/mL | incomparably appreciable activity | – | – | – | – | – | – | – | – | – | – | – |
| CCOC(=O)c1cn(C2CC2)c2c([N+](=O)[O-])c(Nc3ccc(F)cc3)c(F)cc2c1=O [2H] | 833 µM and 344 µg/mL | 647 | 1510 ± 68.2 | 806 ± 59.2 µM | 271 µM and 121 µg/mL | 447 µM and 200 µg/mL | > 200 µg/mL | 485 µM and 208 µg/mL | lacked antibacterial activity | 346 | 560 ± 87.5 µM | 231 | 2.07 | – | – | – | – | – | – | – |
| COc1cccc(Nc2c(F)cc3c(=O)c(C(=O)O)cn(C4CC4)c3c2N)c1 [4b, 8-amino-1-cyclopropyl-6-fluoro-7-(3-methoxy-phenylamino)-4-oxo-1,4-dihydro-quinoline-3-carboxylic acid] | 149 µM and 57.2 µg/mL | – | – | 17 ± 2.57 µM | 120 µM and 46 µg/mL | 229 µM and 87.6 µg/mL | 177 µM and 67.7 µg/mL | 155 µM and 59.2 µg/mL | – | 6.5 | 276 ± 20.2 µM | 106 | – | 16.25 | 0.024 (≈ 9.2 ng/mL) | – | – | – | – | – |
| CCCCc1ccc(Nc2c(F)cc3c(=O)c(C(=O)O)cn(C4CC4)c3c2N)cc1 [4e, 8-Amino-1-cyclopropyl-6-fluoro-7-(4-butyl-phenylamino)-4-oxo-1,4-dihydro-quinoline-3-carboxylic acid] | 44.1 µM and 18 µg/mL | 27.6 | 67.3 ± 6.64 | 0.005 ± 0.0009 µM | 79.2 µM and 32.4 µg/mL | 25.1 µM and 10.3 µg/mL | 107 µM and 44 µg/mL | 20.8 µM and 8.5 µg/mL | – | 0.002 | 43 ± 3.02 µM | 18.9 | – | 8592 | 0.32 (≈ 131 ng/mL) | more potent than antimycotic flucanozole | significantly more potent than ciprofloxacin | – | – | – |
| COc1ccc(Nc2c(F)cc3c(=O)c(C(=O)O)cn(C4CC4)c3c2N)c(OC)c1 [4g, 8-amino-1-cyclopropyl-7-(2,4-dimethoxy-phenylamino)-6-fluoro-4-oxo-1,4-dihydro-quinoline-3-carboxylic acid] | 1.01 mM and 435 µg/mL | 120 | 277 ± 39 | > 200 µg/mL | 807 µM and 348 µg/mL | 709 µM and 306 µg/mL | 317 µM and 137 µg/mL | 310 µM and 128 µg/mL | – | – | > 200 µg/mL | – | – | – | 0.004 (≈ 1.65 ng/mL) | – | significantly more potent than ciprofloxacin | – | – | – |
| COc1ccccc1-n1nnc2c3c(cc(F)c21)c(=O)c(C(=O)O)cn3C1CC1 [5a, 9-cyclopropyl-4-fluoro-3-(2-methoxy-phenyl)-6-oxo-6,9-dihydro-3H-[1,2, and 3] triazolo [4,5-h] quinoline-7-carboxylic acid] | 42.1 µM and 16.6 µg/mL | 124 | 299 ± 11.4 | 41.7 ± 6.86 µM | 171 µM and 67.2 µg/mL | > 200 µg/mL | 44.3 µM and 17.4 µg/mL | 201 µM and 78.9 µg/mL | – | 16.4 | 279 ± 27.4 µM | 110 | – | 6.71 | – | – | significantly more potent than ciprofloxacin | – | – | – |
| CCc1ccc(-n2nnc3c4c(cc(F)c32)c(=O)c(C(=O)O)cn4C2CC2)cc1 [5d, 9-cyclopropyl-4-fluoro-3-(4-ethyl-phenyl)-6-oxo-6,9-dihydro-3H-[1,2,3] triazolo[4,5-h]quinoline-7-carboxylic acid] | 372 µM and 146 µg/mL | 447 | 1140 ± 82.4 | 163 ± 22.6 µM | 124 µM and 48.5 µg/mL | 161 µM and 63 µg/mL | 177 µM and 69.1 µg/mL | 163 µM and 63.8 µg/mL | – | 63.8 | 165 ± 16.1 µM | 64.5 | 1.33 | – | – | – | significantly more potent than ciprofloxacin | – | – | – |
| CCCCc1ccc(-n2nnc3c4c(cc(F)c32)c(=O)c(C(=O)O)cn4C2CC2)cc1 [5e, 9-cyclopropyl-4-fluoro-3-(4-butyl-phenyl)-6-oxo-6,9-dihydro-3H-[1,2,3] triazolo[4,5-h]quinoline-7-carboxylic acid] | 97.6 µM and 41 µg/mL | 153 | 364 ± 22.8 | 49 ± 7.2 µM | 103 µM and 43.1 µg/mL | 181 µM and 76 µg/mL | 105 µM and 44.2 µg/mL | 87.1 µM and 36.5 µg/mL | – | 20.6 | 72.6 ± 3.56 µM | 30.4 | – | 1.48 | – | more potent than antimycotic flucanozole | – | – | – | – |
| CCn1cc(C(=O)O)c(=O)c2cc(F)c3c(nnn3-c3ccc(OC)cc3OC)c21 [13c, 3-(2,4-dimethoxy-phenyl)-9-ethyl-4-fluoro-6-oxo-6,9-dihydro-3H-[1,2,3] triazolo[4,5-h]quinoline-7-carboxylic acid] | 182 µM and 74.7 µg/mL | 179 | 435 ± 71.7 | 68.7 ± 8.04 µM | 487 µM and 201 µg/mL | 662 µM and 272 µg/mL | 4.15 µM and 1.71 µg/mL | 138 µM and 56.6 µg/mL | – | 28.2 | 172 ± 17.8 µM | 70.6 | – | – | – | – | significantly more potent than ciprofloxacin | 41.35 | – | – |
| CCn1cc(C(=O)O)c(=O)c2cc(F)c(Nc3ccc(Cl)cc3)c(N)c21 [A (X =Cl)] | – | – | – | – | – | – | – | – | – | – | – | – | – | – | – | – | – | – | 3.5 | 11.7 |
